Measured values: ChEMBL document CHEMBL1148751, “Optimization of the indenone ring of indenoisoquinoline topoisomerase I inhibitors” (2007)

Key:
Format in all cases: functional
MDA-MB-435 = test: Cytotoxicity against human MDA-MB-435 cells
SN12C = test: Cytotoxicity against human SN12C cells
UACC-62 = test: Cytotoxicity against human UACC62 cells
HCT-116 = test: Cytotoxicity against human HCT116 cells
SF-539 = test: Cytotoxicity against human SF539 cells
OVCAR-3 = test: Cytotoxicity against human OVCAR-3 cells
DU-145 = test: Cytotoxicity against human DU145 cells
HOP-62 = test: Cytotoxicity against human HOP62 cells

| SMILES | GI50 (MDA-MB-435) [µM] | GI50 (SN12C) [µM] | GI50 (UACC-62) [µM] | GI50 (HCT-116) [µM] | GI50 (SF-539) [µM] | GI50 (OVCAR-3) [µM] | GI50 (DU-145) [µM] | GI50 (HOP-62) [µM] |
| --- | --- | --- | --- | --- | --- | --- | --- | --- |
| N#Cc1ccc2c(c1)C(=O)c1c-2n(CCCN=[N+]=[N-])c(=O)c2cc([N+](=O)[O-])ccc12 | > 50.1 | 46.8 | 3.63 | 3.89 | > 50.1 | > 50.1 | 7.08 | 15.1 |
| COc1cc2c3c(n(CCCBr)c(=O)c2cc1OC)-c1ccc(F)cc1C3=O | 43.7 | 15.5 | 3.89 | 5.75 | 3.55 | 24.5 | 4.36 | 4.17 |
| CCc1ccc2c(c1)C(=O)c1c-2n(CCCBr)c(=O)c2cc([N+](=O)[O-])ccc12 | > 50.1 | > 50.1 | 32.4 | > 50.1 | 28.2 | > 50.1 | > 50.1 | 21.4 |
| COc1cc2c3c(n(CCCCl)c(=O)c2cc1OC)-c1ccc(C#N)cc1C3=O | > 100 | 22.9 | 6.76 | 15.1 | 7.24 | 12.9 | 10.7 | 14.8 |
| COc1cc2c3c(n(CCCCl)c(=O)c2cc1OC)-c1ccccc1C3=O | > 100 | > 100 | 12.3 | 2.46 | 14.1 | 10.7 | > 100 | 4.47 |
| COc1cc2c3c(n(CCCN=[N+]=[N-])c(=O)c2cc1OC)-c1ccc(N)cc1C3=O | 0.214 | 0.148 | 0.026 | 0.047 | 0.05 | 0.214 | 0.059 | 0.051 |
| COc1ccc2c(c1)C(=O)c1c-2n(CCCCl)c(=O)c2cc([N+](=O)[O-])ccc12 | 3.24 | < 0.01 | < 0.01 | 0.794 | 0.027 | 3.39 | 0.036 | 0.295 |
| N#Cc1ccc2c(c1)C(=O)c1c-2n(CCCCl)c(=O)c2cc([N+](=O)[O-])ccc12 | > 100 | 5.89 | 1.12 | 1.82 | 2.63 | 8.71 | 2.75 | 2.57 |
| CSc1ccc2c(c1)C(=O)c1c-2n(CCCBr)c(=O)c2cc([N+](=O)[O-])ccc12 | 30.9 | 0.891 | 3.09 | 2.24 | 4.57 | > 100 | 3.89 | 1.05 |
| [N-]=[N+]=NCCCn1c2c(c3ccc([N+](=O)[O-])cc3c1=O)C(=O)c1cc(F)ccc1-2 | 2.88 | 0.302 | 0.38 | 0.309 | 0.457 | 3.47 | 0.437 | 0.251 |
| [N-]=[N+]=NCCCn1c2c(c3ccc([N+](=O)[O-])cc3c1=O)C(=O)c1cc(Br)ccc1-2 | > 100 | > 100 | > 100 | 3.02 | > 100 | > 100 | 14.8 | 56.2 |
| COC(=O)c1ccc2c(c1)C(=O)c1c-2n(CCCN=[N+]=[N-])c(=O)c2cc([N+](=O)[O-])ccc12 | > 100 | > 100 | 37.1 | 47.9 | 53.7 | > 100 | 70.8 | 25.7 |
| O=C1c2cc(-c3ccccc3)ccc2-c2c1c1ccc([N+](=O)[O-])cc1c(=O)n2CCCBr | > 50.1 | > 50.1 | 49 | > 50.1 | 16.6 | > 50.1 | > 50.1 | 18.2 |
